# Results from PMC7069944, “Amino acid levels determine metabolism and CYP450 function of hepatocytes and hepatoma cell lines” (Nature Communications, 2020).
# Several values for one entry are separate records, joined by “and”; a condition that tells them apart may be missing. Identical values can stand only once.
# Columns and labels:
# [1] = system: HepG2; experiment: Repeated-exposure DILI training compounds, resazurin conversion, HepG2
# Protocol: (§1) To evaluate the ability to predict hepatotoxicity, we adapted the differentiation assays to a 384-well format. […] As a readout, we evaluated cell viability by resazurin conversion and correlated the results to therapeutic doses (Cmax values).
# (§2) PSCs were differentiated in a 384-well format. […] As a negative control, 41 wells were left untreated. HepG2 were seeded at 40,000 cells per well. […] Cells were fixed with 4% PFA. […] Drugs were administrated after 8 h of attachment.
# [2] = system: HLC; experiment: Repeated-exposure DILI training compounds, resazurin conversion, HLC
# Protocol: as §1, §2
# [3] = system: HC6X; experiment: Repeated-exposure DILI training compounds, resazurin conversion, HC6X
# Protocol: as §1, §2
# [4] = system: HC3X; experiment: Repeated-exposure DILI training compounds, resazurin conversion, HC3X; details: HC3X AAGLY D40
# Protocol: as §1, §2
smiles,measurement,setting,value
CCN(CC)C(=O)/C(C#N)=C/c1cc(O)c(O)c([N+](=O)[O-])c1 [entacapone],"Resazurin conversion, repeated exposure (Supplementary Figure 7D)","[1]; HepG2 AAGLY D30, 10 uM",102.7 and 108.3 and 96.3 and 95.5 and 95.9 and 100.8
same,"Resazurin conversion, repeated exposure (Supplementary Figure 7D)","[1]; HepG2 AAGLY D30, 30 uM",105.3 and 123.1 and 95.9 and 95.5 and 94.4 and 98.6
same,"Resazurin conversion, repeated exposure (Supplementary Figure 7D)","[1]; HepG2 AAGLY D30, 50 uM",152.4 and 137.5 and 121.1 and 116.5 and 124.4 and 119.5
same,"Resazurin conversion, repeated exposure (Supplementary Figure 7D)","[1]; HepG2 AAGLY D30, 100 uM",127.9 and 149.8 and 134.1 and 127 and 120.4 and 132.2
same,"Resazurin conversion, repeated exposure (Supplementary Figure 7D)","[1]; HepG2 AAGLY D30, 300 uM",69.6 and 78.3 and 68.3 and 72.6 and 71.7 and 76.3
same,"Resazurin conversion, repeated exposure (Supplementary Figure 7D)","[1]; HepG2 AAGLY D30, 500 uM",44.9 and 57 and 46.8 and 54.7 and 52.8 and 66
same,"Resazurin conversion, repeated exposure (Supplementary Figure 7D)","[1]; HepG2 AAGLY D30, 1000 uM",37.4 and 37.7 and 35.2 and 41.1 and 43.2 and 46
same,"Resazurin conversion, repeated exposure (Supplementary Figure 7D)","[1]; HepG2 AAGLY D30, 2000 uM",19.3 and 22.6 and 21.6 and 20.1 and 20.8
same,"Resazurin conversion, repeated exposure (Supplementary Figure 7D)","[1]; HepG2 AAGLY D30, 4000 uM",12.5 and 14.6 and 13 and 12.9 and 13.1 and 20.4
same,"Resazurin conversion, repeated exposure (Supplementary Figure 7D)","[1]; HepG2 CTL D7, 10 uM",93.9
same,"Resazurin conversion, repeated exposure (Supplementary Figure 7D)","[1]; HepG2 CTL D7, 30 uM",102.5 and 112.8 and 108.6 and 134.8 and 127 and 107.9
same,"Resazurin conversion, repeated exposure (Supplementary Figure 7D)","[1]; HepG2 CTL D7, 50 uM",101.5 and 107.8 and 111.6 and 126.8 and 128.3 and 109
same,"Resazurin conversion, repeated exposure (Supplementary Figure 7D)","[1]; HepG2 CTL D7, 100 uM",95.8 and 101 and 100.7 and 120.3 and 125.1 and 104.1
same,"Resazurin conversion, repeated exposure (Supplementary Figure 7D)","[1]; HepG2 CTL D7, 300 uM",67.5 and 62.9 and 68.7 and 80.5 and 91.5 and 70.1
same,"Resazurin conversion, repeated exposure (Supplementary Figure 7D)","[1]; HepG2 CTL D7, 500 uM",36 and 31.8 and 34.4 and 55.7 and 53 and 36.2
same,"Resazurin conversion, repeated exposure (Supplementary Figure 7D)","[1]; HepG2 CTL D7, 1000 uM",9.5 and 6.9 and 7.9 and 10.8 and 9.3 and 8.4
same,"Resazurin conversion, repeated exposure (Supplementary Figure 7D)","[1]; HepG2 CTL D7, 2000 uM",3.6 and 3.2 and 3.7 and 3.8 and 3.4
same,"Resazurin conversion, repeated exposure (Supplementary Figure 7D)","[1]; HepG2 CTL D7, 4000 uM",2.7 and 2 and 2.5 and 2.9 and 3
same,"Resazurin conversion, repeated exposure (Supplementary Figure 7D)","[2]; HLC AAGLY D40, 10 uM",72 and 89.5 and 61.6 and 92.2 and 93.5 and 83.6
same,"Resazurin conversion, repeated exposure (Supplementary Figure 7D)","[2]; HLC AAGLY D40, 30 uM",103.8 and 101.2 and 95.5 and 67.7 and 80.3 and 90.5
same,"Resazurin conversion, repeated exposure (Supplementary Figure 7D)","[2]; HLC AAGLY D40, 50 uM",106.7 and 75.7 and 96.1 and 56 and 97.2 and 93.3
same,"Resazurin conversion, repeated exposure (Supplementary Figure 7D)","[2]; HLC AAGLY D40, 100 uM",90.9 and 65.1 and 97.6 and 81.7 and 65.8 and 91.6
same,"Resazurin conversion, repeated exposure (Supplementary Figure 7D)","[2]; HLC AAGLY D40, 300 uM",81.3 and 79.9 and 79 and 69.8 and 111.3 and 89.9
same,"Resazurin conversion, repeated exposure (Supplementary Figure 7D)","[2]; HLC AAGLY D40, 500 uM",97.3 and 87.8 and 100.8 and 81.9 and 90.2 and 84.4
same,"Resazurin conversion, repeated exposure (Supplementary Figure 7D)","[2]; HLC AAGLY D40, 1000 uM",107 and 95.5 and 86.2 and 93 and 108.2 and 101.5
same,"Resazurin conversion, repeated exposure (Supplementary Figure 7D)","[2]; HLC LDM D40, 10 uM",80.5 and 101.6 and 104.1 and 93.5 and 79.5 and 109
same,"Resazurin conversion, repeated exposure (Supplementary Figure 7D)","[2]; HLC LDM D40, 30 uM",122.3 and 84.7 and 104.1 and 84.4 and 84 and 104
same,"Resazurin conversion, repeated exposure (Supplementary Figure 7D)","[2]; HLC LDM D40, 50 uM",80.6 and 88.8 and 112.5 and 118.1 and 65.6 and 98.1
same,"Resazurin conversion, repeated exposure (Supplementary Figure 7D)","[2]; HLC LDM D40, 100 uM",89.9 and 104.8 and 77.5 and 95.7 and 95.5 and 115.1
same,"Resazurin conversion, repeated exposure (Supplementary Figure 7D)","[2]; HLC LDM D40, 300 uM",108.5 and 82.7 and 104.1 and 95.3 and 63.3 and 100.3
same,"Resazurin conversion, repeated exposure (Supplementary Figure 7D)","[2]; HLC LDM D40, 500 uM",94.1 and 111.1 and 84.2 and 118.9 and 108.7 and 108.4
same,"Resazurin conversion, repeated exposure (Supplementary Figure 7D)","[2]; HLC LDM D40, 1000 uM",72.7 and 101.3 and 78 and 89.4 and 85.4 and 124.1
same,"Resazurin conversion, repeated exposure (Supplementary Figure 7D)","[3]; HC6X AAGLY D40, 10 uM",116.9 and 68.5 and 106.9 and 88.2 and 63 and 119.9
same,"Resazurin conversion, repeated exposure (Supplementary Figure 7D)","[3]; HC6X AAGLY D40, 30 uM",103.2 and 75.2 and 84.6 and 107.4 and 73.5 and 104.8
same,"Resazurin conversion, repeated exposure (Supplementary Figure 7D)","[3]; HC6X AAGLY D40, 50 uM",71.4 and 61.4 and 89.5 and 66.5 and 69.6 and 76.8
same,"Resazurin conversion, repeated exposure (Supplementary Figure 7D)","[3]; HC6X AAGLY D40, 100 uM",43.6 and 55 and 60.5 and 66.1 and 44.9 and 64.9
same,"Resazurin conversion, repeated exposure (Supplementary Figure 7D)","[3]; HC6X AAGLY D40, 300 uM",37.1 and 36.3 and 44.1 and 42.3 and 33.5 and 37.5
same,"Resazurin conversion, repeated exposure (Supplementary Figure 7D)","[3]; HC6X AAGLY D40, 500 uM",24.4 and 21.6 and 32.3 and 32.9 and 27.4 and 25.1
same,"Resazurin conversion, repeated exposure (Supplementary Figure 7D)","[3]; HC6X AAGLY D40, 1000 uM",25.5 and 25.3 and 37.2 and 22.8 and 23.6 and 21
same,"Resazurin conversion, repeated exposure (Supplementary Figure 7D)","[3]; HC6X AAGLY D40, 2000 uM",12 and 11.8 and 15.1 and 12.5 and 11.4 and 12.9
same,"Resazurin conversion, repeated exposure (Supplementary Figure 7D)","[3]; HC6X AAGLY D40 Remove dox, 10 uM",62.8 and 75.4 and 93.9 and 104.7 and 88.6 and 79.3
same,"Resazurin conversion, repeated exposure (Supplementary Figure 7D)","[3]; HC6X AAGLY D40 Remove dox, 30 uM",86.2 and 86.6 and 84.6 and 85 and 82.3
same,"Resazurin conversion, repeated exposure (Supplementary Figure 7D)","[3]; HC6X AAGLY D40 Remove dox, 100 uM",87.4 and 81.5 and 70.5 and 95.4 and 102 and 63.6
same,"Resazurin conversion, repeated exposure (Supplementary Figure 7D)","[3]; HC6X AAGLY D40 Remove dox, 300 uM",89.2 and 80.7 and 67.2 and 48.2 and 75.7 and 47.5
same,"Resazurin conversion, repeated exposure (Supplementary Figure 7D)","[3]; HC6X AAGLY D40 Remove dox, 2000 uM",43.7 and 44 and 38.6 and 66.6 and 63.4 and 64.5
same,"Resazurin conversion, repeated exposure (Supplementary Figure 7D)",[4]; 10 uM,105.5 and 90.3 and 90.2 and 88.2 and 71.2 and 75.6
same,"Resazurin conversion, repeated exposure (Supplementary Figure 7D)",[4]; 30 uM,115.8 and 62.8 and 93.9 and 99.3 and 81.1 and 63.6
same,"Resazurin conversion, repeated exposure (Supplementary Figure 7D)",[4]; 50 uM,82.1 and 69.4 and 93.5 and 81.3 and 74.4 and 55.8
same,"Resazurin conversion, repeated exposure (Supplementary Figure 7D)",[4]; 100 uM,49 and 46.9 and 84.4 and 61.2 and 50.7 and 51.6
same,"Resazurin conversion, repeated exposure (Supplementary Figure 7D)",[4]; 500 uM,18.2 and 17.1 and 16.8 and 16 and 16.9 and 13.4
same,"Resazurin conversion, repeated exposure (Supplementary Figure 7D)",[4]; 1000 uM,8.7 and 10.7 and 12.7 and 12.4 and 7.5
same,"Resazurin conversion, repeated exposure (Supplementary Figure 7D)",[4]; 2000 uM,4 and 3.7 and 3.3 and 2.8 and 3
same,"Resazurin conversion, repeated exposure (Supplementary Figure 7D)",[4]; 4000 uM,2.3 and 2.9 and 3.3 and 2.8 and 2.6 and 2.4
